# Test results reported in patent US20240148821A1, “PHARMACEUTICAL USE OF CYCLIC PEPTIDE COMPOUND” (CHUGAI SEIYAKU KABUSHIKI KAISHA, priority 2021, published 2024).
# Numbered stars: 1 amine (or outer) side, 2 acyl side, 3 side chain; on linkers, the order of the positions; unused ones are H or OH. Bridge positions count the residues as written; N and C are the ends. Square brackets hold non-standard residues; d marks the D form. Peptide text beside a SMILES is read from it. * marks the point of attachment. hPhe(3,5-F2-4-CF3) = N[C@@H](CCc1cc(F)c(C(F)(F)F)c(F)c1)C(=O)O; hPhe(3-Cl-4-CF3) = N[C@@H](CCc1ccc(C(F)(F)F)c(Cl)c1)C(=O)O; hPhe(3-F,4-CF3) = N[C@@H](CCc1ccc(C(F)(F)F)c(F)c1)C(=O)O; NMePhe(4-CF3) = CN[C@@H](Cc1ccc(C(F)(F)F)cc1)C(=O)O; NMePhe(4-Cl) = CN[C@@H](Cc1ccc(Cl)cc1)C(=O)O; NMePhe(4-Me) = CN[C@@H](Cc1ccc(C)cc1)C(=O)O; NMedβ3hAla = C[C@H](CC(=O)[*:2])N(C)[*:1]; NMeAla(cPent) = CN[C@@H](CC1CCCC1)C(=O)O; NMeGly(cPent) = CN[C@H](C(=O)O)C1CCCC1; Pro(4,4-F2) = O=C(O)[C@@H]1CC(F)(F)CN1; NMeCha = CN[C@@H](CC1CCCCC1)C(=O)O; Hyp = O=C(O)[C@@H]1C[C@@H](O)CN1; NMeChg = CN[C@H](C(=O)O)C1CCCCC1; NMeI = CC[C@H](C)[C@H](NC)C(=O)O; NMeD = CN[C@@H](CC(=O)O)C(=O)O; NMeL = CN[C@@H](CC(C)C)C(=O)O; NMeV = CN[C@H](C(=O)O)C(C)C; d(β3hA) = C[C@@H](N)CC(=O)O; NMeS = CN[C@@H](CO)C(=O)O; NMeA = CN[C@@H](C)C(=O)O; NMeAib = CNC(C)(C)C(=O)O; Piperidide = C1CCN(*)CC1; Ac5c = NC1(C(=O)O)CCCC1; Aze = O=C(O)[C@@H]1CCN1; Isopentyl = CC(C)CC*; Sar = CNCC(=O)O; Propyl = CCC*
# Legend:
# [1] = tested on: Human pancreatic cancer cell line AsPC-1 (G12D mutation Kras); experiment: AsPC-1 cell growth inhibition (AsPC-1 CGI); format: cell-based; conditions: read-out: AsPC-1 cell growth inhibition, 50% growth inhibitory concentration (IC50 value); 96 hours, CellTiter-Glo, values classified in ranges
# Description: Test compounds were serially dilated with dimethyl sulfoxide, and 200 nL was then dispensed to a U-bottom 96-well plate using Labcyte Echo. […] The cell suspension was dispensed to a. plate containing a test compound at 100 μL per well and incubated at 37° C. in a 5% carbon dioxide gas incubator. 96 hours later, 80 μL of CellTiter-Glo (Promega) was added to each well and fluorescence was measured.
# [2] = molecular target: protein-protein interaction between Kras and SOS1 (biotin-tagged human Kras loaded with GDP, His-tagged human SOS1) (Homo sapiens (Human), UniProt P01116, G12D); experiment: Protein-protein interaction inhibition between Kras and SOS1 (KrasG12D-SOS PPI) using AlphaScreen; format: biochemical; conditions: AlphaScreen; biotin-tagged human Kras loaded with GDP, His-tagged human SOS1; read-out: KRAS G12D-SOS PPI IC50;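 further: kras produced in E. coli, Ni-coupled donor beads and streptavidin acceptor beads, excitation 680 nm with emission detected at 520–620 nm via singlet oxygen transfer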
SMILES,IC50 [1] [nM],IC50 [2] [nM]
CCO[C@@H]1C[C@H]2C(=O)NC3(CCCC3)C(=O)N(C)[C@@H](C3CCCC3)C(=O)N(C)[C@H](C)CC(=O)N(C)[C@@H](CC(C)C)C(=O)N[C@@H]([C@@H](C)CC)C(=O)N(C)[C@@H](C)C(=O)N3CC[C@H]3C(=O)N(C)[C@@H](Cc3ccc(C(F)(F)F)cc3)C(=O)N(C)CC(=O)N[C@@H](CCc3ccc(C(F)(F)F)c(Cl)c3)C(=O)N2C1 [Compound 640] (cyclo([Ac5c][NMeGly(cPent)][NMedβ3hAla][NMeL]I[NMeA][Aze][NMePhe(4-CF3)][Sar][hPhe(3-Cl-4-CF3)][Hyp](Et))),≤ 20,0.86
CC[C@H](C)[C@@H]1NC(=O)[C@H](CC(C)C)N(C)C(=O)C[C@@H](C(=O)N2CCCCC2)N(C)C(=O)[C@H](C2CCCCC2)N(C)C(=O)C2(CCCC2)NC(=O)[C@H](CC2CCCC2)N(C)C(=O)[C@H](CCc2ccc(C(F)(F)F)c(Cl)c2)NC(=O)CN(C)C(=O)[C@H](CC2CCCCC2)N(C)C(=O)CN(C)C(=O)CN(C)C1=O [Compound 643] ([NMeL]I[Sar][Sar][NMeCha][Sar][hPhe(3-Cl-4-CF3)][NMeAla(cPent)][Ac5c][NMeChg][NMeD]-Piperidide; lactam N-11),> 500,27
CC[C@H](C)[C@@H]1NC(=O)[C@H](CC(C)C)NC(=O)C[C@@H](C)NC(=O)[C@H](C2CCCC2)N(C)C(=O)C2(CCCC2)NC(=O)[C@@H]2CCCN2C(=O)[C@H](CCc2ccc(C(F)(F)F)c(Cl)c2)NC(=O)CN(C)C(=O)[C@H](Cc2ccc(C)cc2)N(C)C(=O)[C@@H]2CCN2C(=O)[C@H](C)N(C)C1=O [Compound 648] (cyclo([Ac5c][NMeGly(cPent)][d(β3hA)]LI[NMeA][Aze][NMePhe(4-Me)][Sar][hPhe(3-Cl-4-CF3)]P)),> 500,3.2
CC[C@H](C)[C@@H]1NC(=O)[C@H](COCCC(C)C)N(C)C(=O)C[C@@H](C(=O)N2CCCCC2)N(C)C(=O)[C@H](C(C)C)N(C)C(=O)C2(CCCC2)NC(=O)[C@@H]2CCCN2C(=O)[C@H](CCc2ccc(C(F)(F)F)c(Cl)c2)NC(=O)CN(C)C(=O)[C@H](CC2CCCCC2)N(C)C(=O)[C@@H]2CCN2C(=O)[C@H](C)N(C)C1=O [Compound 661] ([NMeS](Isopentyl)I[NMeA][Aze][NMeCha][Sar][hPhe(3-Cl-4-CF3)]P[Ac5c][NMeV][NMeD]-Piperidide; lactam N-11),> 500,13
"CC[C@H](C)[C@@H]1NC(=O)[C@H](CC(C)C)N(C)C(=O)C[C@@H](C)N(C)C(=O)[C@H]([C@@H](C)CC)N(C)C(=O)C2(CCCC2)NC(=O)[C@@H]2CC(F)(F)CN2C(=O)[C@H](CCc2ccc(C(F)(F)F)c(Cl)c2)NC(=O)CN(C)C(=O)[C@H](Cc2ccc(C(F)(F)F)cc2)N(C)C(=O)[C@@H]2CCN2C(=O)[C@H](C)N(C)C1=O [Compound 668] (cyclo([Ac5c][NMeI][NMedβ3hAla][NMeL]I[NMeA][Aze][NMePhe(4-CF3)][Sar][hPhe(3-Cl-4-CF3)][Pro(4,4-F2)]))",≤ 20,1.9
"CC[C@H](C)[C@@H]1NC(=O)[C@H](CC(C)C)N(C)C(=O)C[C@@H](C(=O)N2CCCCC2)N(C)C(=O)[C@H]([C@@H](C)CC)N(C)C(=O)C2(CCCC2)NC(=O)[C@@H]2CCCN2C(=O)[C@H](CCc2ccc(C(F)(F)F)c(F)c2)NC(=O)CN(C)C(=O)[C@H](Cc2ccc(C)cc2)N(C)C(=O)[C@@H]2CCN2C(=O)[C@H](C)N(C)C1=O [Compound 678] ([NMeL]I[NMeA][Aze][NMePhe(4-Me)][Sar][hPhe(3-F,4-CF3)]P[Ac5c][NMeI][NMeD]-Piperidide; lactam N-11)",≤ 20,1.7
"CC[C@H](C)[C@@H]1NC(=O)[C@H](CC(C)C)N(C)C(=O)C[C@@H](C)N(C)C(=O)[C@H](CC(C)C)NC(=O)C(C)(C)N(C)C(=O)[C@H](CC(C)C)NC(=O)[C@H](CCc2cc(F)c(C(F)(F)F)c(F)c2)NC(=O)CN(C)C(=O)[C@H](Cc2ccc(Cl)cc2)N(C)C(=O)CN(C)C(=O)CN(C)C1=O [Compound 687] (cyclo(I[Sar][Sar][NMePhe(4-Cl)][Sar][hPhe(3,5-F2-4-CF3)]L[NMeAib]L[NMedβ3hAla][NMeL]))",> 500,16
CCCOC[C@H]1C(=O)N(C)CC(=O)N[C@@H](CCc2ccc(C(F)(F)F)c(Cl)c2)C(=O)N2CCC[C@H]2C(=O)NC2(CCCC2)C(=O)N(C)[C@@H]([C@@H](C)CC)C(=O)N(C)[C@H](C(=O)N2CCCCC2)CC(=O)N(C)[C@@H](CC(C)C)C(=O)N[C@@H]([C@@H](C)CC)C(=O)N(C)[C@@H](C)C(=O)N2CC[C@H]2C(=O)N1C [Compound 690] ([NMeL]I[NMeA][Aze][NMeS](Propyl)[Sar][hPhe(3-Cl-4-CF3)]P[Ac5c][NMeI][NMeD]-Piperidide; lactam N-11),≤ 20,1.8
